Measured values published in patent US20140377289A1, “Metallodrugs Having Improved Pharmacological Properties, and Methods of Manufacture and Use Thereof” (MetalloPharm, LLC, priority 2011, published 2014).
Where a SMILES comes first, the peptide text is derived from it. Where no end group is shown, it is not given here. [ ]: non-standard residue; d: D form. The star is where a group is joined. X1 = COCCOCCOCCOCCOCCOCCOCCOCCOCCOCCOCCOCCOCCOCCOCCOCCOCCOCCOCCOCCOCCOCCOCCOCCNC(=O)CCN1C(=O)CC(*)C1=O

How the values were obtained:
pUC19 plasmid DNA = assay: DNA nicking and linearization nuclease assay; format: biochemical; conditions: 10 μM base pairs pUC19; ascorbate/peroxide; — = Below detection limit
[1] = target: T1, Recombinant human somatic ACE (sACE-1) (Homo sapiens, UniProt P12821); assay: Time-dependent inactivation of sACE-1; format: biochemical; conditions: Ascorbate; pH 7.4, 37° C.
T1 construct: sACE-1: Leu30-Leu1261, with C-terminal His tag; His tag (C); purchased R&D Systems; host or cells: NS0-derived murine myeloma cell line
T1 sequence (P12821 30-1261): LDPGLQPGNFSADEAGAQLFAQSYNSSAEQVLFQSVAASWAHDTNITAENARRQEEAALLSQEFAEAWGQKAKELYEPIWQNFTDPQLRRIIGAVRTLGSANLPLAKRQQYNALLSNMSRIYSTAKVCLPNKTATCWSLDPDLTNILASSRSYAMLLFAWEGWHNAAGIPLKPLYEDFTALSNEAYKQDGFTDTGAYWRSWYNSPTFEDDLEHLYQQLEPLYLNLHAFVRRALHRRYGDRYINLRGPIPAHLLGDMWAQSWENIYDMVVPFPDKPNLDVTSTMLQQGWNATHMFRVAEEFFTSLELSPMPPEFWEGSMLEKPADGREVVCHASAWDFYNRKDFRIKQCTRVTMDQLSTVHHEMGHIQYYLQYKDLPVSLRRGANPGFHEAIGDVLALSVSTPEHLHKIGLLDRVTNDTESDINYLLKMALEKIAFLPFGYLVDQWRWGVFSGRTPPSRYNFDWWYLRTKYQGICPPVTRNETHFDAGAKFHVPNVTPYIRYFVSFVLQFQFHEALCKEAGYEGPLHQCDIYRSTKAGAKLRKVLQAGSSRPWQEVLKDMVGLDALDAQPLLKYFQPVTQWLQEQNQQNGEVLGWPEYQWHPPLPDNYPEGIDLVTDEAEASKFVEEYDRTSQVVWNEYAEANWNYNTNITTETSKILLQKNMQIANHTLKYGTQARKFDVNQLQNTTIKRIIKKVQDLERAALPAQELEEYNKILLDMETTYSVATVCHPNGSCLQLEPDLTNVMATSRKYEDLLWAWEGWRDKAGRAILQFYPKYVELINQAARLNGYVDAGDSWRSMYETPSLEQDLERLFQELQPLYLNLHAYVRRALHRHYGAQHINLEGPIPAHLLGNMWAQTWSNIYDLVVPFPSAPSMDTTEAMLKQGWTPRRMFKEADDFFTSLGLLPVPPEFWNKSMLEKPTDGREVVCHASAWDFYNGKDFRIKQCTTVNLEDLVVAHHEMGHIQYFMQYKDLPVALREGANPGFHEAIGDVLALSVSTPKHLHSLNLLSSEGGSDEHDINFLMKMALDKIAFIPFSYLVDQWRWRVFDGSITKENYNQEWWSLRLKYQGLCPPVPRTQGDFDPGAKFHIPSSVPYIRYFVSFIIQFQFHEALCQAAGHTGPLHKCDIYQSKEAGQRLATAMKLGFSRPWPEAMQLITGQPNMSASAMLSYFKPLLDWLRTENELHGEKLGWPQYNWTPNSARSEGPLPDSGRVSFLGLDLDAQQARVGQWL
Protocol: Time-Dependent Inactivation of sACE-1. sACE-1 and each M-chelate-lisinopril complex (prepared in the absence of Zn^2+) were preincubated for 20 min at 37° C. in a buffer containing 50 mM HEPES, 300 mM NaCl, 10 μM ZnCl2, 0.05% Brij35, pH 7.4, and after 20 min, coreactants ascorbate and/or H2O2 (or no coreactants) were added to initiate each reaction. Reaction concentrations were 1 nM sACE-1, a concentration of M-chelate-lisinopril that gave approximately 80% activity (calculated by use of equation (1), where A=80%; concentrations listed in the table in paragraph [00132]), and 1 mM ascorbate and/or H2O2 (or no coreactants). Each time-dependent ACE-inactivation reaction proceeded at 37° C. for a period of 2 h, and at each specific intervening time point, a 68.6 μL, aliquot of the reaction mixture containing sACE-1 was mixed with 1.4 μL of 0.5 mM fluorogenic substrate in a fluorescence cuvette. Substrate cleavage by sACE-1 was immediately monitored by real-time fluorimetry at 37° C., with excitation at 320 nm and emission at 405 nm. Initial rates were determined for each time point for the time-dependent inactivation of sACE-1, and these initial rates were expressed as a percentage (% maximal activity) of the average of several initial rates for uninhibited substrate cleavage by sACE-1, determined in the absence of both M-chelate-lisinopril complexes and coreactants. Plots of % maximal activity vs. time were fit to a first-order exponential decay model, and initial rates of inactivation of sACE-1 by M-chelate-lisinopril complexes were determined. Second-order rate constants for inactivation of sACE-1 were obtained using equation (2), where k2 is the second-order rate constant (M^−1 min^−1), R is the initial rate of enzyme inactivation (M/min) after subtraction of the corresponding background rate in the absence of M-chelate-lisinopril complex, but with the same coreactants, [I] is the concentration of M-chelate-lisinopril complex used (M), and [E] is the concentration of sACE-1 used (1×10^−9 M). Control experiments with M-chelate complexes lacking attached lisinopril were performed in the same manner and conditions used for the respective M-chelate-lisinopril complexes.

full length sACE-1 = target: T2, full length sACE-1 (Homo sapiens, UniProt P12821); assay: Cleavage of full length sACE-1 monitored by SDS-PAGE; format: biochemical; conditions: Ascorbate, pH 7.4, 37° C.
T2 construct: sACE-1: Leu30-Leu1261, with C-terminal His tag; His tag (C); purchased R&D Systems; host or cells: NS0-derived murine myeloma cell line
T2 sequence (P12821 30-1261): as above

[2] = system: stem loop IV HCV IRES RNA; format: biochemical, hepatitis C virus (HCV); conditions: cleavage of stem loop IV; 100 nM catalyst, 1 mM ascorbate, 1 mM H2O2
Protocol: (§1) HCV IRES RNA cleavage was monitored in vitro by fluorescence using 5′ fluorescein end-labeled RNA with excitation and emission wavelengths of 485 nm and 518 nm, respectively. Reactions were carried out in reaction volumes of 100 μl in the presence of 1 mM ascorbate and 1 mM H2O2 in 20 mM HEPES buffer (pH=7.4), 100 mM NaCl with 100 nM of the catalyst and analyzed according to the change in fluorescence observed as the reaction occurred. Both a time-dependence and a concentration-dependence of RNA substrate were observed. The initial velocities were fit to a line using Origin 7.0 software and kobs obtained. These values were then used to obtain the Michaelis-Menten parameters.

[3] = system: stem-loop IIb of HCV IRES RNA; format: binding, hepatitis C virus (HCV); conditions: stem-loop IIb
Protocol: (§2) RNA was purchased from Dharmacon, part of Thermo Fisher Scientific (Lafayette, Colo.). Peptides were purchased from Genemed Synthesis Inc (South San Francisco, Calif.) with C-terminal amidation. The stem-loop (SL) structure (from Lytle et al., RNA 13: 539-48, 2002) is depicted in FIG. 6. The sequence for the IRES SL IIb RNA used was 5′-Fluorescein-[…]-3′, and for the IRES SL IV RNA was 5′-Fluorescein-[…]-3′. All RNA was annealed by heating to 95° C. and then cooled slowly to room temperature before use.
(§3) RNA binding experiments were performed in the presence of 84 nM GGHYrFK-amide in 20 mM HEPES (pH 7.4), 100 mM NaCl. For GGHYrFK-amide, serial additions of unlabeled IRES RNA were added and tyrosine emission was monitored (λex=280 nm, λem=313 nm). Binding data for GGHYr[…]-amide and GGHYr[…]-amide were obtained by adding serial additions of peptide to 5′-fluorescein labeled IRES SLIIb and monitoring at 518 nm (Ex=485 nm). Data was then fit to a one-site binding model.

[4] = system: stem loop IV HCV IRES RNA; format: binding, hepatitis C virus (HCV)
Protocol: as §2, §3

[5] = system: stem loop IIb HCV IRES RNA; format: biochemical, hepatitis C virus (HCV); conditions: cleavage of stem-loop IIb; 100 nM catalyst, 1 mM ascorbate, 1 mM H2O2
Protocol: as §1
The reactivity of select catalytic metallodrugs was investigated by Michaelis-Menten profiles. Reaction chemistry was followed by monitoring the fluorescence change of 5′-fluorescein-labeled RNA as a function of time. Initial velocities were measured as a function of substrate (RNA) concentration to generate a standard Michaelis-Menten plot (FIG. 2).

HCV protease = HCV protease (Hepatitis C virus genotype 1a, UniProt P27958); conditions: cited from earlier work
Sequence of HCV protease (P27958 1027-1208, other chains not shown): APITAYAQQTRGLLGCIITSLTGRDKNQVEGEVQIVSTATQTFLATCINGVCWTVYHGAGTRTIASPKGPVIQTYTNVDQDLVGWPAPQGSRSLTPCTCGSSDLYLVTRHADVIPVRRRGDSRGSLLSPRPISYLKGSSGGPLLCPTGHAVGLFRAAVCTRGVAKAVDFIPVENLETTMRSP

| Compound | CC50 [µM] | Vmax [2] [RFU/min] | KA [3] [M⁻¹] | Kd [3] [µM] | KA [4] [M⁻¹] | Kd [4] [µM] | Vmax [5] [RFU/min] | further results |
| --- | --- | --- | --- | --- | --- | --- | --- | --- |
| COCCOCCOCCOCCOCCOCCOCCOCCOCCOCCOCCOCCOCCOCCOCCOCCOCCOCCOCCOCCOCCOCCOCCOCCNC(=O)CCN1C(=O)CC(SC[C@H](NC(=O)CNC(=O)CNC(=O)[C@H](CCCCN)NC(=O)[C@H](Cc2ccccc2)NC(=O)[C@@H](CCCNC(=N)N)NC(=O)[C@H](Cc2ccc(O)cc2)NC(=O)CNC(=O)[C@H](Cc2c[nH]cn2)NC(=O)CNC(=O)CN)C(N)=O)C1=O (stereo partly shown) [Cu-GGHGYrFKGGC-PEG24] (H-GGHGY[dR]FKGGC(X1)-NH2) | > 50 | – | – | – | – | – | – | – |
| COCCOCCOCCOCCOCCOCCOCCOCCOCCOCCOCCOCCOCCOCCOCCOCCOCCOCCOCCOCCOCCOCCOCCOCCOCCOCCOCCOCCOCCOCCOCCOCCOCCOCCOCCOCCOCCOCCOCCOCCOCCOCCOCCOCCOCCOCCOCCOCCNC(=O)CCN1C(=O)CC(SC[C@H](NC(=O)CNC(=O)CNC(=O)[C@H](CCCCN)NC(=O)[C@H](Cc2ccccc2)NC(=O)[C@@H](CCCNC(=N)N)NC(=O)[C@H](Cc2ccc(O)cc2)NC(=O)CNC(=O)[C@H](Cc2c[nH]cn2)NC(=O)CNC(=O)CN)C(N)=O)C1=O (stereo partly shown) [Cu-GGHGYrFKGGC-PEG48] | > 50 | – | – | – | – | – | – | – |
| O=C([O-])CN(CCN(CC(=O)[O-])CC(=O)[O-])CC(=O)[O-].[Fe+3] [Fe-EDTA] | – | – | – | – | – | – | – | klin for DNA linearization, without attached Rev (M-chelate) (pUC19 plasmid DNA): 0.0005 ± 0.0001 min⁻¹; knick for DNA nicking, without attached Rev (M-chelate) (pUC19 plasmid DNA): 0.044 ± 0.009 min⁻¹; Second order rate constant for inactivation of sACE-1, M-chelate without lisinopril [1]: 10,000 ± 50,000 M^−1min^−1; Second order rate constant for cleavage of full length sACE-1 (in brackets), M-chelate without lisinopril (full length sACE-1): {<100,000} M^−1min^−1 |
| Cu-GGHKYKETDLLILFKDDYFAKKNEERK-amide | – | 2.0 | 556000 | 1.8 | 143000 | 7 | 13.96 | – |
| Cu-GGHYRFK-amide (GGHYRFK-NH2; also: Cu complex) | – | 0.95 | 145000 | 6.9 | 145000 | 6.9 | 3.96 | – |
| DDIVPC [Asp-Asp-Ile-Val-Pro-Cys] | – | – | – | – | – | – | – | Ki (HCV protease): 79 µM |
